Experimental data published in US6391921B1 (priority 2000, dated 2002).

Legend:
RBL-2H3 cells = assay: Mast cell viability by trypan blue dye exclusion; format: cell-based, rat; conditions: 300 μM, 2 hour treatment at 37° C.
From the text: The viability of compound D-58-treated mast cells ranged from 91 to 92%. […] Stimulation of RBL-2H3 mast cells using IgE/antigen as a stimulus induced the release of significant amounts of preformed granule-associated β-hexosaminidase (47.2±7.9% of total cellular content) as well as newly synthesized LTC4 (5.8±1.8 pg/10^6 cells).

Balb/c mice = assay: IgE-dependent passive cutaneous anaphylaxis (Evans blue dye extravasation); format: in vivo; conditions: 25 mg/kg i.p. twice at 1 hour intervals prior to antigen challenge; 30 minutes after challenge; vehicle 0.64±0.08
Procedure: The in vivo biologic activity of compound D-58 was examined in a well characterized murine model of passive cutaneous anaphylaxis. In order to induce passive cutaneous anaphylaxis, left ears of Balb/c mice were sensitized with 50 μg DNP-IgE intradermally. Right ears were injected with equal volumes of saline. Dorsal sides of the ears of Balb/c mice were injected intradermally with 50 μg of DNP-IgE (left ears) or PBS (right ears) using a 30-gauge needle (ref 28). Twenty hours later, mice were challenged with 100 μg antigen (DNP-BSA) in 200 μl 2% Evans blue dye intravenously. Control mice were given PBS (but not antigen) intravenously with 2% Evans blue. For quantitation of Evans blue dye extravasation as a measure of anaphylaxis-associated vascular hyperpermeability, 8 mm^2 skin specimens were removed from the ears of mice, minced in 2 ml formamide and incubated in a 80° C. water bath for 2 hours to extract the dye. The absorbance was read at 570 nm using a spectrophotometer.
For assessment of the vascular leak, animals were sacrificed 30 minutes after the antigen challenge. The plasma exudation was assessed by quantitation of the amount of Evan's blue dye extravasated into the ear skin 30 minutes after the antigen challenge. […]

SYK = target: T1, SYK (Homo sapiens, UniProt P43405); assay: SYK tyrosine kinase assay; format: biochemical; conditions: 1 hour exposure
T1 construct: made in house; host or cells: Sf21 insect cells (baculovirus)
Procedure: Sf21 (IPLB-SF21-AE) cells derived from the ovarian tissue of the fall armyworm Spodotera frugiperda, were obtained from Invitrogen and maintained at 26-28° C. in Grace's insect cell medium supplemented with 10% FBS and 1.0% antibiotic/antimycotic (GIBCO-BRL). Stock cells were maintained in suspension at 0.2-1.6×10^6/ml in 600 ml total culture volume in 1 L Bellco spinner flasks at 60-90 rpm. Cell viability was maintained at 95-100% as determined by trypan blue dye exclusion.
Sf21 cells were infected with a baculovirus expression vector for BTK or SYK, as previously described (refs 18 and 19). […]
Following electrophoresis, kinase gels were dried onto Whatman 3M filter paper and subjected to phosphoimaging on a Molecular Imager (Bio-Rad, Hercules, Calif.) as well as autoradiography on film. […] For each drug concentration, a BTK or SYK kinase activity index was determined by comparing the ratios of the kinase activity in phosphorimager units (PIU) and density of the protein bands in densitometric scanning units (DSU) to those of the baseline sample and using the formula: Activity Index=[PIU of kinase band/DSU of BTK/SYK protein band]test sample: [PIU of kinase band/DSU of BTK/SYK protein band]baseline control sample.

## COc1ccc(CC(=O)c2c(O)cc(O)cc2O)cc1 [Compound D-58]
RBL-2H3 cells
  effect on viability of RBL-2H3 cells: did not affect the viability
Balb/c mice
  Evans blue dye extravasation in DNP-IgE injected ears, Absorbance at 570 nm: 0.26±0.02
SYK; first experiment, FIG. 1B
  IC50: 36.9 µM
SYK; second experiment, FIG. 1C
  IC50: < 10 µM
